The values below come from US6583132B1, “Oxidant scavengers” (Duke University, priority 1993, dated 2003).

pIC50, pKi: −log10 of the molar value. Read-outs that look alike come from different tables or passages of the source.

The target of one assay is T1, xanthine oxidase (Bos taurus, UniProt P80457).
T1 construct: purchased Boehringer Mannheim
Put plainly: Inhibition of xanthine oxidase. The class given is biochemical. The note with it: for pKi: pH 10, 25° C., 1 nM xanthine oxidase. As for the experimental part:
In a first study, assays were performed in a 1 ml quartz cuvette containing 50 mM carbonate buffer, pH 10, 0.1 mM EDTA, 1 nM xanthine oxidase (Boehringer Mannheim) at 25° C. Xanthine oxidase activity was measured spectrophotometrically by following the […] over time at 295 nm. Four concentrations of xanthine (25, 50, 250, 500 μM) and 2 concentrations of MnTBAP (5, 10 μM) were used. Two inhibition constants were then derived from the curve's intercepts (Kii=5.5 μM) and slopes (Kis=15 μM).

The subject of assay [1] is Calf pulmonary endothelial cell (CPA-47) line. In words: Glucose oxidase hydrogen peroxide injury of CPA-47, Cr^51 release. The class given is cell-based. The conditions noted are these: glucose oxidase 100 Mu/ml, 4 hours; 1 hour pretreatment. As for the experimental part:
(§1) Calf pulmonary endothelial cell (CPA-47) line was grown to near confluence in 12-well plates with F-12K medium containing 10% fetal calf serum. CPA-47 cells were loaded with Cr^51 as previously described by Simon et al J. Clin. Invest. 78:1375 (1986) in high glucose minimum essential medium (DMEM). Cells were pretreated with MnTBAP (100 μM) for 1 hour and then exposed to various concentrations of hydrogen peroxide generator, glucose oxidase, for 4 hours. Cell injury was then quantitated as the specific Cr^51 release from CPA-47 cells which has been adjusted for spontaneous Cr51 release.
as §1, with “(J.” for “J.”, “(1986))” for “(1986)”, “various concentrations of either: (A) MnTBAP; (B) MnTMPyP; (C) ZnTBAP; or (D) CuZnSOD” for “MnTBAP (100 μM)”, “the” for “various concentrations of”, “oxidase (100 Mu/ml),” for “oxidase,”, “Cr^51” for “Cr51”

The nature of assay [2]: Peroxynitrite-induced oxidation of dihydrorhodamine 123. The class given is biochemical. The conditions noted are these: peroxynitrite 5 μM; 10 μM dihydrorhodamine 123; 10 min, 22° C.; read-out: concentration giving 50% inhibition of oxidation of dihydrorhodamine 123 to rhodamine 123. As for the experimental part:
Measurement of peroxynitrite-induced oxidation of dihydrorhodamine 123: The peroxynitrite-dependent oxidation of dihydrorhodamine 123 to rhodamine 123, was measured based on the principles of the method described by Kooy et al, Free Radical Biol. Med. 16:149 (1994). Briefly, peroxynitrite at 5 μM was added into phosphate-buffered saline containing 10 μM dihydrorhodamine 123, in the absence of presence of MnTBAP (3-100 μM). After a 10 min incubation at 22° C., the fluorescence of rhodamine 123 was measured using a Perkin-Elmer fluorimeter (Model LS50B: Perkin-Elmer, Norwalk, Conn.) at an excitation wavelength of 500 mn, emission wavelength of 536 nm (slit widths 2.5 and 3.0 nm, respectively).

For assay [3], the system named is J774 macrophages. In words: Mitochondrial respiration (MTT) in J774 macrophages. The class given is cell-based. As for the experimental part:
(§2) Cell culture: J774 macrophages were cultured in DMEM medium, supplemented with L-glutamine (3.5 mmol/L) and 10% fetal calf serum. Cells were cultured in 96-well plates (200 μl medium/well) until confluence. To induce the inducible isoform of nitric oxide synthase (iNOS), fresh culture medium containing E. coli LPS (011:B4, 10 μg/ml) alone or in combination with murine γ-interferon (γ-IFN, 10 U/ml) was added in the presence or absence of the NOS inhibitor, the SOD mimetic of the combination of the two compounds for 24 h. Moreover, cells were exposed to the NO donor compounds S-nitroso-N-acetyl-DL-penicillamine (SNAP) (3 mM) and diethylamine:NO NONOate (DNO) (3 mM) for 24 h or to authentic peroxynitrite (1 mM) for 1 h). Nitride/nitrate concentration in the medium and mitochondrial respiration were then measured as described below.
Measurement of mitochondrial respiration: Cell respiration was assessed by the mitochondrial-dependent reduction of 3-(4,5-dimethylthiazol-2-yl)-2,5-diphenyltetrazolium bromide (MTT) to formazan. Cells in 96-well plates were incubated at 37° C. with MTT (0.2 mg/ml) for 1 hour. Culture medium was removed by aspiration and the cells were solubilized in DMSO (100 μl). The extent of reduction of MTT to formazan within cells was quantitated by the measurement of OD550. All measurements were corrected for the interference of MnTBAP at this wavelength.

The subject of assay [4] is J774 macrophages. Put plainly: Nitrite/nitrate production in J774 macrophages. The conditions noted are these: for inhibition of LPS-induced nitrite/nitrate accumulation: LPS 10 μg/ml; for inhibition of nitrite/nitrate accumulation: LPS and IFN. The class given is cell-based. As for the experimental part:
as §2
Measurement of nitrite/nitrate production: Nitride/nitrate production, an indicator of NO synthesis, was measured in the supernatant. First, nitrate in the culture medium was reduced to nitrite by incubation with nitrate reductase (670 mU/ml) and NADPH (160 μM) at room temperature for 2 h. After 2 h, nitrite concentration in the samples were measured by the Griess reaction, by adding 100 μl of Griess reagent (1% sulfanilamide and 0.1% naphthylethylenediamide in 5% phosphoric acid) to 100 μl samples of conditioned medium. The optical density at 550 nm (OD550) was measured using a Spectramax 250 microplate reader (Molecular Devices, Sunnyvale, Calif.) Nitrate concentrations were calculated by comparison with OD550 of standard solutions of sodium nitrate prepared in culture medium. All measurements were corrected for the interference of MnTBAP at this wavelength.

For assay [5], the system named is descending thoracic aorta rings. Put plainly: NO-induced vascular relaxations of aortic rings. The conditions noted are these: 100 μM; NO 75-300 nM. More on the design: species or system New Zealand white rabbits. As for the experimental part:
Measurement of NO-induced vascular relaxations: New Zealand white rabbits weighing 3-4 kg were anesthetized with pentobarbital (30 mg/kg). The descending thoracic aorta was isolated, removed, cleaned and placed in Krebs buffer (pH 7.5). Vessels were cut into 5 mm rings and hung on stirrups connected to force transducers. Rings were suspended in 20 ml jacketed baths which were kept at 37° C. and bubbled with 95% O2 and 5% CO2. Rings were equilibrated with 2 g resting tension for 1 h before use and contracted with phenylephrine. Saturated NO solution was prepared by bubbling compressed NO gas through a NaOH trap and then into anaerobic deionized water. Aliquots of the nitric oxide solutions (final concentration: 75-300 nM) were added to the rings (in the presence or absence of 100 μM MnTBAP) and relaxant responses were recorded.

T1 sequence (P80457 whole entry): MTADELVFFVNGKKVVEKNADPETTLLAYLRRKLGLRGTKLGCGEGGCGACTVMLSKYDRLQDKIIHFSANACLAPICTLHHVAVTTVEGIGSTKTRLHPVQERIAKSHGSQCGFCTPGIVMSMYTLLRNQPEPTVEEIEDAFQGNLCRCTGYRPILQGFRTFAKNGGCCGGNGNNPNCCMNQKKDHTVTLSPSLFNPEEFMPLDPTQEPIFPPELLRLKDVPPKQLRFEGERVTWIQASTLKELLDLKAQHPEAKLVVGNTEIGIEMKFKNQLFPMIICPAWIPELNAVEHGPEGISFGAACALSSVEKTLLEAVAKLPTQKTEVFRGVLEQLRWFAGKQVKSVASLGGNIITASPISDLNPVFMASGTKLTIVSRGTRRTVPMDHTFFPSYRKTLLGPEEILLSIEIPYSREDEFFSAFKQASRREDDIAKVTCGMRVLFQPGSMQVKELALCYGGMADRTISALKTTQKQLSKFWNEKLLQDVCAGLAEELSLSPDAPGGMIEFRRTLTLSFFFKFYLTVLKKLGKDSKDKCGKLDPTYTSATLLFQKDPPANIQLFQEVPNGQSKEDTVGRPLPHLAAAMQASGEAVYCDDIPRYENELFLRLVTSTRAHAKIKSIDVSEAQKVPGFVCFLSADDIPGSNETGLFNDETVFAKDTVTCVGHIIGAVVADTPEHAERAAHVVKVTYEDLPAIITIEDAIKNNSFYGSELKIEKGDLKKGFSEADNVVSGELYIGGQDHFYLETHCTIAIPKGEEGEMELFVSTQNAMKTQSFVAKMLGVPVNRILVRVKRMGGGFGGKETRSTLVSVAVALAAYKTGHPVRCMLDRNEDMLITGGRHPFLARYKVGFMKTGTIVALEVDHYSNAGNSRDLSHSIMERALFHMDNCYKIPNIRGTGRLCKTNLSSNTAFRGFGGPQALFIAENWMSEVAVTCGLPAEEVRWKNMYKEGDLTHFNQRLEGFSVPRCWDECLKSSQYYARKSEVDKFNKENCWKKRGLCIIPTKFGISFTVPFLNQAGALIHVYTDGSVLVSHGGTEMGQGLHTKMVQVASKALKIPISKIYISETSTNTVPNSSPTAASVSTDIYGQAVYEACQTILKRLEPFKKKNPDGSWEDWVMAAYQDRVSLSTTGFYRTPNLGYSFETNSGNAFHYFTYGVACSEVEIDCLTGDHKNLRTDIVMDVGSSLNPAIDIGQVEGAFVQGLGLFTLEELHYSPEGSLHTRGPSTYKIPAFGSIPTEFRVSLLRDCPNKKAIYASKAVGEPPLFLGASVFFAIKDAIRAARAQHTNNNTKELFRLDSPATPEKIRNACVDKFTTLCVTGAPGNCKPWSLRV

Turning to “Mn(III) tetrakis (4-benzoic acid)porphyrin [MnTBAP]”, the “manner of inhibition of xanthine oxidase” value on xanthine oxidase is “non-competitive”. In addition, the pKi on xanthine oxidase (read-out: Kii (inhibition constant from intercepts)) is 5.26. Moreover, the pKi on xanthine oxidase (read-out: Kis (inhibition constant from slopes)) was 4.82. Besides, the “hydrogen peroxide-induced endothelial cell injury” value in assay [1] is listed as “reduction”. For the same substance, in assay [2], the pIC50 is 4.52. The “suppression of mitochondrial respiration by peroxynitrite” value in the assay with J774 macrophages [3] (1 mM peroxynitrite, 1 h) was “partially and dose dependently prevented”. Further, in the assay with J774 macrophages [3] (LPS-treated and LPS and IFN-treated cells, 24 h), the “immunostimulation-induced suppression of mitochondrial respiration” value is “dose-dependent, partial restoration”. In addition, the “suppression of mitochondrial respiration by NO donors SNAP and DNO” value with J774 macrophages [3] (SNAP, DNO 3 mM, 24 h) is “partially and dose dependently prevented”. Further, the “nitrite/nitrate formation in the presence of L-NMA” value in the assay with J774 macrophages [4] is on record as “no additional effect”. For the same substance, in the assay on J774 macrophages [4] (100 μM), the “inhibition of LPS-induced nitrite/nitrate accumulation” value was determined as 63% and the “inhibition of nitrite/nitrate accumulation” value came to 25%. Besides, in the assay with J774 macrophages [4] (300 μM), the “nitrite/nitrate accumulation in response to DNO” value is given as “slight inhibition”, the “nitrite/nitrate accumulation in response to SNAP” value was “did not inhibit”, the “inhibition of LPS-induced nitrite/nitrate accumulation” value was 86% and the “inhibition of nitrite/nitrate accumulation” value was found to be 61%. For the same substance, in the assay on J774 macrophages [4] (LPS-stimulated macrophages), the “change of inhibition of nitrite/nitrate accumulation when applied 6 h after LPS” value was “more than 50%”. The “relaxations in vascular rings in response to authentic NO” value in assay [5] is on record as “did not inhibit”.
